What was measured:
[1] = biological target: T1, SMARCA4-HiBiT HeLa cells (protein which is expressed from the SMARCA4 gene) (Homo sapiens, UniProt P51532); test: SMARCA4 degradation assay (HiBiT-fusion HeLa cell line, 24 h, luminescence); format: cell-based
T1 construct: protein which is expressed from the SMARCA2 and SMARCA4 genes; host or cells: HeLa (SMARCA4-HiBiT engineered line)
Experimental: (§1) SMARCA2 and SMARCA4 Degradation Assay
(§2) Degradation of protein which is expressed from the SMARCA2 and SMARCA4 genes was monitored using engineered HiBiT-fusion HeLa cell lines from Promega. In brief, 384-well white opaque plates (Greiner) were seeded with SMARCA2-HiBiT or SMARCA4-HiBiT HeLa cells at 8,000 cells/well and incubated overnight at 37° C. to allow cell attachment. After overnight incubation, test compounds were added in a 10-point dilution series (typically 10 μM to 300 pM) using a TECAN D300e Digital Dispenser, and plates were subsequently incubated for 24 hours at 37° C. 24-hours post-treatment, protein levels were quantified with the addition of HiBiT lytic buffer, LgBiT protein, and HiBiT substrate, according to manufacturer's specifications. Plates were incubated on an orbital plate shaker for 10 minutes at room temperature. Resulting luminescent values were read out using a ClarioStar plate reader and used to construct dose-response curves and calculation of degradation DC50s (GraphPad Prism).
(§3) Activity of the tested compounds is provided in Table 4 below as follows: A=DC50<0.050 μM; B=0.05 μM<DC50<0.50 μM; C=<0.5 μM<DC50<5.0 μM; D=DC50>5.0 μM. For SMARCA2 and SMARCA4 degradation activity @1 μM, +++=>70%; ++=30-70%; +=<30%.

[2] = biological target: T2, SMARCA2-HiBiT HeLa cells (protein which is expressed from the SMARCA2 gene) (Homo sapiens, UniProt P51531); test: SMARCA2 degradation assay (HiBiT-fusion HeLa cell line, 24 h, luminescence); format: cell-based
T2 construct: protein which is expressed from the SMARCA2 and SMARCA4 genes; host or cells: HeLa (SMARCA2-HiBiT engineered line)
T2 sequence (P51531 whole entry, the tested form may be a part): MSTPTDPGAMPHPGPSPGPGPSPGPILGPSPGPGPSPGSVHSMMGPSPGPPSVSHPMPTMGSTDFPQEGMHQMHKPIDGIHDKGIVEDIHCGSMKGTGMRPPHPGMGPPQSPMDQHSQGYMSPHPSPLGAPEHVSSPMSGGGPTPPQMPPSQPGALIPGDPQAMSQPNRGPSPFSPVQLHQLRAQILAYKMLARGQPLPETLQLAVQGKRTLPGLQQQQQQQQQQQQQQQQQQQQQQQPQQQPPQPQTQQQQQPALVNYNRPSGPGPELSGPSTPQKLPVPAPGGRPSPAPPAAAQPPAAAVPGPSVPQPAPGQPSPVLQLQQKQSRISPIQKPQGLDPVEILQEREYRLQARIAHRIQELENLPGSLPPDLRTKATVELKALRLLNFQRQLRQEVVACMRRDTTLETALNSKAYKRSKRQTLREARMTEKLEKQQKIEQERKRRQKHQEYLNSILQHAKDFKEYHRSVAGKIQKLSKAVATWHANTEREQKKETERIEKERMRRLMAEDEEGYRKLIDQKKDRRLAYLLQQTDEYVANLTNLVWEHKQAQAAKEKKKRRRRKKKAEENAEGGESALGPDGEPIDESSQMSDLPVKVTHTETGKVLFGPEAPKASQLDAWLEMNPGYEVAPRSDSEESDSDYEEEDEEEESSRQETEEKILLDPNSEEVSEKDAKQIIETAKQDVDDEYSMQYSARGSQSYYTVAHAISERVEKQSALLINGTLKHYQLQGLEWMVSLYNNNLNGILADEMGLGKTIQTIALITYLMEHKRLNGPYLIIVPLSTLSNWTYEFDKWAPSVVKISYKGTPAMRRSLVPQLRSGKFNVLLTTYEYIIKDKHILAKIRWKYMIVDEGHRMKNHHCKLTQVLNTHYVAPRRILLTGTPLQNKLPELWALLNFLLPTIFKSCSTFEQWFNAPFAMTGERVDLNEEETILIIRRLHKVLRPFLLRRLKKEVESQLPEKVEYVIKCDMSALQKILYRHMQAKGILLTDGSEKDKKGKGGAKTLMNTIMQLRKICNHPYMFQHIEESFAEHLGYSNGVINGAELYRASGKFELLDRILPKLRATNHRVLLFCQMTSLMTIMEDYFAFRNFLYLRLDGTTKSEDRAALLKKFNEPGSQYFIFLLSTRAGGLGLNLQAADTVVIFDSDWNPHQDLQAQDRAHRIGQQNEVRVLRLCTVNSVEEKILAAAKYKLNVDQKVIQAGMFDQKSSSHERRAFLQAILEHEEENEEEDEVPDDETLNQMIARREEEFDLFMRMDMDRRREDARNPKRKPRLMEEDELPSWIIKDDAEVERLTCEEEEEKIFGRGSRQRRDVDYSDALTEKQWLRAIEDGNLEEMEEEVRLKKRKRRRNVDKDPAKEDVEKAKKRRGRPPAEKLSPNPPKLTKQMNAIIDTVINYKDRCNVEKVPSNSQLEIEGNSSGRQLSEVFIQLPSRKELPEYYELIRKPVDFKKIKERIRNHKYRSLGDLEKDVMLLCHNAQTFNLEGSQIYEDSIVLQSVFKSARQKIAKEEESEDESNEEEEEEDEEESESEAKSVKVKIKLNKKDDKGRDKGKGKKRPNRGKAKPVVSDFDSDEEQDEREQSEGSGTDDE
Experimental: as §1, §2, §3

T1 sequence (P51532 whole entry, the tested form may be a part): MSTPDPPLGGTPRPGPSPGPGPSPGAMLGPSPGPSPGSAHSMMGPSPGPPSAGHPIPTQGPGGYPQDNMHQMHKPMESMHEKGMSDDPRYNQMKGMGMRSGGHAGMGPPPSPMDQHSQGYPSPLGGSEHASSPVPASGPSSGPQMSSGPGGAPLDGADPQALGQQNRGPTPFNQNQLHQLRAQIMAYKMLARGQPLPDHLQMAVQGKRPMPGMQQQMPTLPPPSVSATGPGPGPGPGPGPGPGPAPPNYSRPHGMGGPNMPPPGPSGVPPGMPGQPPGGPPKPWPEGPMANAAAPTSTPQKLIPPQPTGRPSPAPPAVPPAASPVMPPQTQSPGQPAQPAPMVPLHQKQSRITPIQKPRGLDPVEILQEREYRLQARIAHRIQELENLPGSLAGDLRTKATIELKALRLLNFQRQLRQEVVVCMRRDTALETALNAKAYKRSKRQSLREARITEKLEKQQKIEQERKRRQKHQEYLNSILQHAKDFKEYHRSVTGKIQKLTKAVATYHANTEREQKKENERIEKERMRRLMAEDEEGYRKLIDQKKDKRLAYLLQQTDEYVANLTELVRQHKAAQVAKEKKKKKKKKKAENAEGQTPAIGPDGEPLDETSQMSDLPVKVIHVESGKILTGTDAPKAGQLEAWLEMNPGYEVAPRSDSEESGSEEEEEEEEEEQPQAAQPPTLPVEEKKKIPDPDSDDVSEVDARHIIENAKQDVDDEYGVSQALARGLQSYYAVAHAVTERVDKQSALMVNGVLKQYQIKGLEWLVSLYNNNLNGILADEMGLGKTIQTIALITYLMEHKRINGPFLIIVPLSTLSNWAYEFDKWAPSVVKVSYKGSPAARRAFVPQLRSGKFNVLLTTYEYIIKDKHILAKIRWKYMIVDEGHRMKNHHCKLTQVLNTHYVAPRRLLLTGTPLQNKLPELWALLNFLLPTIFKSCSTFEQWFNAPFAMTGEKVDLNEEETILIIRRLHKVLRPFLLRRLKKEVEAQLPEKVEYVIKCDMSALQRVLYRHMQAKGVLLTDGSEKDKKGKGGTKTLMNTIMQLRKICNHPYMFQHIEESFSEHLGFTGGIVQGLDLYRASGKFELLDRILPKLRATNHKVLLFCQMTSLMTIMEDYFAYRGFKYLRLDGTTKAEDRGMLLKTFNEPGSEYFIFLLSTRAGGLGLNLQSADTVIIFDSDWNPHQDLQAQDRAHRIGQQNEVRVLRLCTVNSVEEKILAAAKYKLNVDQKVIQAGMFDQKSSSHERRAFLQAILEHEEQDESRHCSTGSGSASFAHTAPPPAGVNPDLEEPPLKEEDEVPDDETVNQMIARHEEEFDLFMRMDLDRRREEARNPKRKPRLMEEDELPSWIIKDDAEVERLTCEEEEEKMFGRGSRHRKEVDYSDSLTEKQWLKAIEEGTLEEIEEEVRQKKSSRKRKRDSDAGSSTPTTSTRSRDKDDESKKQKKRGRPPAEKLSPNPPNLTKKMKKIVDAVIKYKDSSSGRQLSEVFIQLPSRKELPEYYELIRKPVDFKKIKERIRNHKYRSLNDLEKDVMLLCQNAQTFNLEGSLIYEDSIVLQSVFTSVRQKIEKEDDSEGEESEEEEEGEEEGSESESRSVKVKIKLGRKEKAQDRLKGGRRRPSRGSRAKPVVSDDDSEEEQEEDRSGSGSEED

Compound: CN(C)CC#Cc1nccc(N2CCC3(CC2)CCN(c2cc(-c4ccccc4O)nnc2N)C3)n1 [Compound P-344, 0-[6-amino-5-(8-{2-[3-(dimethylamino)-1-propynyl]-4-pyrimidinyl}-2,8-diaza-2-spiro[4.5]decyl)-3-pyridazinyl]phenol]
- DC50 [1]: > 5000 nM
- DC50 [2]: < 50 nM
- SMARCA2 % Degradation @ 1 μM ([2]; @ 1 μM): ++ (++=30-70%)

Compound: Nc1nnc(-c2ccccc2O)cc1N1CCCN(c2ccnc(C#CCN3CC4CCC(C3)O4)n2)CC1 [Compound P-315, 0-{6-amino-5-[4-(2-{3-(8-oxa-3-azabicyclo[3.2.1]oct-3-yl)-1-propynyl}-4-pyrimidinyl)-1,4-diazepan-1-yl]-3-pyridazinyl} phenol]
- DC50 [1]: 500 to 5000 nM
- inhibition at 1 µM ([1]; @ 1 μM): 30 to 70%
- DC50 [2]: 50 to 500 nM
- SMARCA2 % Degradation @ 1 μM ([2]; @ 1 μM): ++ (++=30-70%)

Compound: CN(C)c1cc(N2CCCN(c3cc(-c4ccccc4O)nnc3N)CC2)nc(C#CCNC(=O)c2cc3ncccn3n2)n1 [Compound P-139, N-(3-(4-(4-(3-amino-6-(2-hydroxyphenyl)pyridazin-4-yl)-1,4-diazepan-1-yl)-6-(dimethylamino)pyrimidin-2-yl)prop-2-yn-1-yl)pyrazolo[1,5-a]pyrimidine-2-carboxamide]
- DC50 [1]: 500 to 5000 nM
- inhibition at 1 µM ([1]; @ 1 μM): > 70%
- DC50 [2]: 50 to 500 nM
- SMARCA2 % Degradation @ 1 μM ([2]; @ 1 μM): +++ (+++=>70%)

Compound: Nc1nnc(-c2ccccc2O)cc1N1CCCN(c2ccnc(C#Cc3cccc4nccn34)n2)CC1 [Compound P-306, 0-[5-(4-{2-[2-(1,3a-diaza-4-indenyl)ethynyl]-4-pyrimidinyl}-1,4-diazepan-1-yl)-6-amino-3-pyridazinyl]phenol]
- DC50 [1]: 500 to 5000 nM
- inhibition at 1 µM ([1]; @ 1 μM): < 30%
- DC50 [2]: 500 to 5000 nM
- SMARCA2 % Degradation @ 1 μM ([2]; @ 1 μM): ??

Compound: Cc1ncsc1C(=O)NCC#Cc1nccc(N2CCN(c3cc(-c4ccccc4O)nnc3N)CC2)n1 [Compound P-62, N-(3-(4-(4-(3-amino-6-(2-hydroxyphenyl)pyridazin-4-yl)piperazin-1-yl)pyrimidin-2-yl)prop-2-yn-1-yl)-4-methylthiazole-5-carboxamide]
- DC50 [1]: 50 to 500 nM
- inhibition at 1 µM ([1]; @ 1 μM): 30 to 70%
- DC50 [2]: 50 to 500 nM
- SMARCA2 % Degradation @ 1 μM ([2]; @ 1 μM): ++ (++=30-70%)

Compound: C[C@@H]1CCN(c2cc(-c3ccccc3O)nnc2N)CCN1c1cc(C#CCN(C)C)ncc1Cl [Compound P-409, 0-{5-[(R)-4-{5-chloro-2-[3-(dimethylamino)-1-propynyl]-4-pyridyl}-5-methyl-1,4-diazepan-1-yl]-6-amino-3-pyridazinyl}phenol]
- DC50 [1]: 50 to 500 nM
- DC50 [2]: 50 to 500 nM
- SMARCA2 % Degradation @ 1 μM ([2]; 1 μM): + (+=<30%)

Compound: CC1(F)CCN(CC#Cc2nccc(N3CCC4(CC3)CCN(c3cc(-c5ccccc5O)nnc3N)C4)n2)C1 (centres unmarked) [Compound P-195, o-[6-amino-5-(8-{2-[3-(3-fluoro-3-methyl-1-pyrrolidinyl)-1-propynyl]-4-pyrimidinyl}-2,8-diaza-2-spiro[4.5]decyl)-3-pyridazinyl]phenol]
- DC50 [1]: 50 to 500 nM
- inhibition at 1 µM ([1]; @ 1 μM): 30 to 70%
- DC50 [2]: 50 to 500 nM
- SMARCA2 % Degradation @ 1 μM ([2]; @ 1 μM): ++ (++=30-70%)

Compound: Cn1ccc(C(=O)NCC#Cc2nccc(N3CCN(c4cc(-c5ccccc5O)nnc4N)CC3)n2)n1 [Compound P-7, N-[3-(4-{4-[3-amino-6-(2-hydroxyphenyl)pyridazin-4-yl]piperazin-1-yl}pyrimidin-2-yl)prop-2-yn-1-yl]-1-methyl-1H-pyrazole-3-carboxamide]
- DC50 [1]: < 50 nM
- inhibition at 1 µM ([1]; @ 1 μM): 30 to 70%
- DC50 [2]: 50 to 500 nM
- SMARCA2 % Degradation @ 1 μM ([2]; @ 1 μM): ++ (++=30-70%)

Compound: Cc1cnc(C#CCn2ccnc2)nc1N1CCN(c2cc(-c3ccccc3O)nnc2N)CC[C@H]1C [Compound P-227, o-{5-[(R)-4-{2-[3-(1-imidazolyl)-1-propynyl]-5-methyl-4-pyrimidinyl}-5-methyl-1,4-diazepan-1-yl]-6-amino-3-pyridaziny1} phenol]
- DC50 [1]: 50 to 500 nM
- inhibition at 1 µM ([1]; @ 1 μM): 30 to 70%
- DC50 [2]: 50 to 500 nM
- SMARCA2 % Degradation @ 1 μM ([2]; @ 1 μM): +++ (+++=>70%)

Compound: C[C@@H]1CCN(c2cc(-c3ccccc3O)nnc2N)CCN1c1ccnc(C#CCn2ccnc2)n1 [Compound P-298, 0-{5-[(R)-4-{2-[3-(1-imidazolyl)-1-propynyl]-4-pyrimidinyl}-5-mcthyl-1,4-diazepan-1-yl]-6-amino-3-pyridazinyl}phenol]
- DC50 [1]: 50 to 500 nM
- inhibition at 1 µM ([1]; @ 1 μM): 30 to 70%
- DC50 [2]: 50 to 500 nM
- SMARCA2 % Degradation @ 1 μM ([2]; @ 1 μM): +++ (+++=>70%)

Compound: Cc1nn2ccn(CC#Cc3nccc(N4CCN(c5cnnc(-c6ccccc6O)c5)CC[C@H]4C)n3)c(=O)c2c1C [Compound P-235, 5-[3-(4-{ (R)-4-[6-(o-hydroxyphenyl)-4-pyridaziny1]-7-methyl-1,4-diazepan-1-yl}-2-pyrimidinyl)-2-propynyl]-2,3-dimethyl-1,5,7a-triaza-4(5H)-indenone]
- DC50 [1]: 500 to 5000 nM
- inhibition at 1 µM ([1]; @ 1 μM): < 30%
- DC50 [2]: 50 to 500 nM
- SMARCA2 % Degradation @ 1 μM ([2]; @ 1 μM): + (+=<30%)

Compound: Nc1nnc(-c2ccccc2O)cc1N1CC2CCC(C1)N2c1ccnc(C#CCCCNC(=O)c2cc3ncccn3n2)n1 [Compound P-99, N-(5-(4-(3-(3-amino-6-(2-hydroxyphenyl)pyridazin-4-yl)-3,8-diazabicyclo[3.2.1]octan-8-yl)pyrimidin-2-yl)pent-4-yn-1-yl)pyrazolo[1,5-a]pyrimidine-2-carboxamide]
- DC50 [1]: 500 to 5000 nM
- inhibition at 1 µM ([1]; @ 1 μM): < 30%
- DC50 [2]: 500 to 5000 nM
- SMARCA2 % Degradation @ 1 μM ([2]; @ 1 μM): + (+=<30%)

Compound: C[C@@H]1CCN(c2cc(-c3ccccc3O)nnc2N)CCN1c1nc(C#CCN2CC3CC2C3)ncc1F [Compound P-189, o-{5-[(R)-4-(2-{3-(2-azabicyclo[2.1.1]hex-2-yl)-1-propynyl}-5-fluoro-4-pyrimidinyl)-5-methyl-1,4-diazepan-1-yl]-6-amino-3-pyridazinyl}phenol]
- DC50 [1]: < 50 nM
- inhibition at 1 µM ([1]; @ 1 μM): 30 to 70%
- DC50 [2]: < 50 nM
- SMARCA2 % Degradation @ 1 μM ([2]; @ 1 μM): ++ (++=30-70%)

Compound: C[C@@H]1CCN(c2cc(-c3ccccc3O)nnc2N)CCN1c1ccnc(C#CC2CC2)c1 [Compound P-391, 0-(5-{(R)-4-[2-(2-cyclopropylethynyl)-4-pyridyl]-5-methyl-1,4-diazepan-1-yl}-6-amino-3-pyridazinyl)phenol]
- DC50 [1]: 50 to 500 nM
- DC50 [2]: 50 to 500 nM
- SMARCA2 % Degradation @ 1 μM ([2]; 1 μM): ++ (++=30-70%)

Compound: C[C@@H]1CCN(c2cc(-c3ccccc3O)nnc2N)CCN1c1ccnc(C#CCN2C[C@@H]3C[C@H]2CO3)n1 [Compound P-200]
- DC50 [1]: 50 to 500 nM
- inhibition at 1 µM ([1]; @ 1 μM): 30 to 70%
- DC50 [2]: 50 to 500 nM
- SMARCA2 % Degradation @ 1 μM ([2]; @ 1 μM): +++ (+++=>70%)

Compound: N#Cc1ccc(N2C3CCC2CN(c2cnnc(-c4ccccc4O)c2)C3)nc1C#CCN1CC[C@H](F)C1 [Compound P-402, 2-{3-[(S)-3-fluoro-1-pyrrolidinyl]-1-propynyl}-6-{3-[6-(o-hydroxyphenyl)-4-pyridazinyl]-3,8-diazabicyclo[3.2.1]oct-8-yl}nicotinonitrile]
- DC50 [1]: 50 to 500 nM
- inhibition at 1 µM ([1]; 1 μM): < 30%
- DC50 [2]: 50 to 500 nM
- SMARCA2 % Degradation @ 1 μM ([2]; 1 μM): ++ (++=30-70%)

Compound: NCC#Cc1nccc(N2CC3CN(c4cc(-c5ccccc5O)nnc4N)C3C2)n1 (centres unmarked) [Compound P-84, 2-(6-amino-5-(3-(2-(3-aminoprop-1-yn-1-yl)pyrimidin-4-yl)-3,6-diazabicyclo[3.2.0]heptan-6-yl)pyridazin-3-yl)phenol]
- DC50 [1]: > 5000 nM
- inhibition at 1 µM ([1]; @ 1 μM): < 30%
- DC50 [2]: 500 to 5000 nM
- SMARCA2 % Degradation @ 1 μM ([2]; @ 1 μM): + (+=<30%)

Compound: COC/C=C/c1nccc(N2CCN(c3cc(-c4ccccc4O)nnc3N)CC[C@H]2C)n1 [Compound P-170, o-(5-{(R)-4-[2-(3-methoxy-1-propenyl)-4-pyrimidinyl]-5-methyl-1,4-diazepan-1-yl}-6-amino-3-pyridazinyl)phenol]
- DC50 [1]: 500 to 5000 nM
- inhibition at 1 µM ([1]; @ 1 μM): 30 to 70%
- DC50 [2]: 50 to 500 nM
- SMARCA2 % Degradation @ 1 μM ([2]; @ 1 μM): ++ (++=30-70%)

Compound: Nc1nnc(-c2ccccc2O)cc1N1CC2CCC(C1)N2c1ccnc(C#CCNC(=O)c2cc3ncccn3n2)n1 [Compound P-119, N-(3-(4-(3-(3-amino-6-(2-hydroxyphenyl)pyridazin-4-yl)-3,8-diazabicyclo[3.2.1]octan-8-yl)pyrimidin-2-yl)prop-2-yn-1-yl)pyrazolo[1,5-a]pyrimidine-2-carboxamide]
- DC50 [1]: 500 to 5000 nM
- inhibition at 1 µM ([1]; @ 1 μM): < 30%
- DC50 [2]: > 5000 nM
- SMARCA2 % Degradation @ 1 μM ([2]; @ 1 μM): + (+=<30%)

Compound: Cc1c(C(=O)NCC#Cc2nccc(N3CCN(c4cc(-c5ccccc5O)nnc4N)CC3)n2)oc2ccccc12 [Compound P-74, N-(3-(4-(4-(3-amino-6-(2-hydroxyphenyl)pyridazin-4-yl)piperazin-1-yl)pyrimidin-2-yl)prop-2-yn-1-yl)-3-methylbenzofuran-2-carboxamide]
- DC50 [1]: 50 to 500 nM
- inhibition at 1 µM ([1]; @ 1 μM): 30 to 70%
- DC50 [2]: 50 to 500 nM
- SMARCA2 % Degradation @ 1 μM ([2]; @ 1 μM): ++ (++=30-70%)
